# Test results reported in ChEMBL document CHEMBL1201862, “PubChem BioAssay data set” (2004).
#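 All cell lines were grown in 96-well plates and treated with compound for 48 hours. Abbreviation: GI50, concentration required for 50% inhibition of growth.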 Active and inactive are the calls of the source. Cut-off read from the data, not from the text of the source: active = GI50 up to about 1.1 µM and inactive = higher.
# Tests used:
# Assay in all cases: growth of human tumour cells (NCI), 48 h
# MOLT-4 = tested on: MOLT-4
# UACC-62 = tested on: UACC-62
# HOP-92 = tested on: HOP-92
# MDA-MB-231 = tested on: MDA-MB-231
# SK-OV-3 = tested on: SK-OV-3
# T47D = tested on: T47D
# ACHN = tested on: ACHN
# K562 = tested on: K562
# U-251 = tested on: U-251
# IGROV-1 = tested on: IGROV-1
# DU-145 = tested on: DU-145
# SF-268 = tested on: SF-268
# A549 = tested on: A549
# NCI/ADR-RES = tested on: NCI/ADR-RES
# SF-539 = tested on: SF-539
# Hs-578T = tested on: Hs-578T
# LOX IMVI = tested on: LOX IMVI
# EKVX = tested on: EKVX
# HCC 2998 = tested on: HCC 2998
# A498 = tested on: A498
Structure (SMILES),GI50 (MOLT-4),GI50 (UACC-62),GI50 (HOP-92),GI50 (MDA-MB-231),GI50 (SK-OV-3),GI50 (T47D),GI50 (ACHN),GI50 (K562),GI50 (U-251),GI50 (IGROV-1),GI50 (DU-145),GI50 (SF-268),GI50 (A549),GI50 (NCI/ADR-RES),GI50 (SF-539),GI50 (Hs-578T),GI50 (LOX IMVI),GI50 (EKVX),GI50 (HCC 2998),GI50 (A498)
CCN(CC)c1ccc2cc(C(N)=S)c(=N)oc2c1,> 100 µM (inactive),> 100 µM (inactive),> 100 µM (inactive),> 100 µM (inactive),> 100 µM (inactive),> 100 µM (inactive),> 100 µM (inactive),> 100 µM (inactive),> 100 µM (inactive),> 100 µM (inactive),> 100 µM (inactive),> 100 µM (inactive),> 100 µM (inactive),> 100 µM (inactive),> 100 µM (inactive),> 100 µM (inactive),> 100 µM (inactive),> 100 µM (inactive),> 100 µM (inactive),–
O=C(/C=C\Nc1ccccc1O)C(F)(F)F,31.7 µM (inactive),45.4 µM (inactive),> 100 µM (inactive),> 100 µM (inactive),49.1 µM (inactive),39 µM (inactive),67.8 µM (inactive),38.5 µM (inactive),41.6 µM (inactive),78.9 µM (inactive),> 100 µM (inactive),> 100 µM (inactive),> 100 µM (inactive),> 100 µM (inactive),> 100 µM (inactive),> 100 µM (inactive),95.3 µM (inactive),51.2 µM (inactive),> 100 µM (inactive),–
N#CCCNCCN(CCN(C(=O)Nc1ccccc1)c1ccccc1)C(=O)Nc1ccccc1,39.4 µM (inactive),32.2 µM (inactive),40.6 µM (inactive),> 100 µM (inactive),> 100 µM (inactive),41.5 µM (inactive),47.2 µM (inactive),67 µM (inactive),> 100 µM (inactive),50.4 µM (inactive),66.8 µM (inactive),63.5 µM (inactive),48.1 µM (inactive),58.3 µM (inactive),–,59.2 µM (inactive),37.6 µM (inactive),67.1 µM (inactive),16.1 µM (inactive),51.2 µM (inactive)
COc1cc(C(=O)/C=C/c2ccc(OCCSCCCCCCCCCCSCCOc3ccc(/C=C/C(=O)c4cc(OC)c(OC)c(OC)c4)cc3)cc2)cc(OC)c1OC,> 100 µM (inactive),> 100 µM (inactive),> 100 µM (inactive),> 100 µM (inactive),–,> 100 µM (inactive),> 100 µM (inactive),> 100 µM (inactive),> 100 µM (inactive),> 100 µM (inactive),> 100 µM (inactive),> 100 µM (inactive),> 100 µM (inactive),> 100 µM (inactive),> 100 µM (inactive),> 100 µM (inactive),> 100 µM (inactive),> 100 µM (inactive),> 100 µM (inactive),> 100 µM (inactive)
Cc1cc(C2(c3cc(C)c(O)c(C(=O)O)c3)OS(=O)(=O)c3ccccc32)cc(C(=O)O)c1O,0.205 µM (active),> 100 µM (inactive),> 100 µM (inactive),> 100 µM (inactive),> 100 µM (inactive),> 100 µM (inactive),> 100 µM (inactive),> 100 µM (inactive),> 100 µM (inactive),> 100 µM (inactive),> 100 µM (inactive),> 100 µM (inactive),> 100 µM (inactive),> 100 µM (inactive),> 100 µM (inactive),> 100 µM (inactive),> 100 µM (inactive),> 100 µM (inactive),–,> 100 µM (inactive)
CC(=O)/C=N/CC(=O)O,> 100 µM (inactive),> 100 µM (inactive),> 100 µM (inactive),> 100 µM (inactive),> 100 µM (inactive),> 100 µM (inactive),> 100 µM (inactive),> 100 µM (inactive),> 100 µM (inactive),> 100 µM (inactive),> 100 µM (inactive),> 100 µM (inactive),> 100 µM (inactive),> 100 µM (inactive),> 100 µM (inactive),> 100 µM (inactive),> 100 µM (inactive),> 100 µM (inactive),–,> 100 µM (inactive)
O=C(O)/C=C/C(=O)O [FUMARIC ACID],> 100 µM (inactive),–,> 100 µM (inactive),> 100 µM (inactive),–,> 100 µM (inactive),> 100 µM (inactive),> 100 µM (inactive),> 100 µM (inactive),> 100 µM (inactive),> 100 µM (inactive),> 100 µM (inactive),> 100 µM (inactive),> 100 µM (inactive),> 100 µM (inactive),> 100 µM (inactive),> 100 µM (inactive),> 100 µM (inactive),> 100 µM (inactive),–
